Assay in all cases: MIC by broth dilution method
Holding throughout (assay type): cell-based

Assay [1] relates to Candida albicans 54 (CA300). The conditions noted are these: 18 hours at 35° C. On the procedure: (§1) The minimum inhibitory concentration (MIC), the lowest concentration of the antibiotic which inhibits growth of the test organism, is determined by the broth dilution method using Muller-Hinton II […] (Baltimore Biological Laboratories) following the recommendations of the National Committee for Clinical Laboratory Standards [Methods for dilution antimicrobial susceptibility tests for bacteria that grow aerobically. Approved standard M7-A2. National Committee for Clinical Laboratory Standards, Villanova, Pa].
(§2) An inoculum level of 5×10^5 CFU/ml, and a range of antibiotic concentrations (256-1.0 μg/ml) is used. The MIC is determined after the microtiter plates are incubated for 18 hours at 35° C. in an ambient air incubator. The test organisms comprise a spectrum of Gram-positive bacteria comprised of Staphylococcus sp., Enterococcus sp., Gram-negative bacterium Escherichia coli, and the yeast Candida albicans. These organisms include recent clinical isolates that are resistant to piperacillin and vancomycin.

Assay [2] concerns Enterococcus faecium 379 (NC12204, vancomycin-resistant). To be noted: 18 hours at 35° C. On the procedure: as §1, §2
Assay [3] has as its system Enterococcus faecium 436 (ID3151). The conditions noted are these: 18 hours at 35° C. The protocol:
as §1, §2

The test system of assay [4] is Escherichia coli 389 (GC4560 imp). To be noted: 18 h. The protocol:
as §1, §2

Assay [5] has as its system Escherichia coli 442 (GC4559). The conditions noted are these: 18 hours at 35° C. The protocol:
as §1, §2

Assay [6] has as its system Staphylococcus aureus 310 (SSC8224, methicillin-resistant). To be noted: 18 hours at 35° C. The protocol:
as §1, §2

The subject of assay [7] is Staphylococcus aureus 375 (ATCC3538p). To be noted: 18 hours at 35° C. On the procedure: as §1, §2
The subject of assay [8] is Bacillus subtilis 327 (BGSC-1A1). The conditions noted are these: 18 hours at 35° C.

Molecules are shown by their SMILES. Values after ≈ are worked out from the molar mass of the structure shown. A value given as a limit tells only on which side of the number the result lay.

As to `C=C1OC(=O)c2c(cc3c(C4=C5C=C(O)C(=O)C(O)=C5C(CCCCCCC)OC4=O)c(O)cc(O)c3c2O)C1O` (centres unmarked) [Cytosporacin], the MIC in assay [1] is greater than 256 µg/mL; in assay [2] it was 64 µg/mL (≈ 113 µM); in assay [3], 16 µg/mL (≈ 28.3 µM); in assay [4], 64 µg/mL (≈ 113 µM); in assay [5] it was 256 µg/mL (≈ 453 µM); in assay [6] it was 32 µg/mL (≈ 56.7 µM). The MIC in assay [7] and in assay [8] was 32 µg/mL (≈ 56.7 µM) each time.

For the origin of these results see patent US6784204B2, “Antibiotic cytosporacin” (Wyeth Holdings Corporation, Five Giralda Farms, priority 2002, dated 2004).
